Molecular target: T1, BC3310 (Bacillus cereus, UniProt Q81B77)
T1 construct: gene BC_3310; full-length in pTTQ18 with C-terminal RGSHis6 tag, expressed in E. coli DH5alpha deltaacrAB; 12 predicted TM helices; migrates at ~30 kDa
Experiment: whole-cell ethidium accumulation assay (fluorescence), E. coli expressing BC3310 vs empty vector
Assay type: cell-based
Details: 25 uM ethidium bromide, PBS with 0.4% glucose, pH 7-7.4; CCCP-sensitive efflux

T1 sequence (Q81B77 entry or part of it): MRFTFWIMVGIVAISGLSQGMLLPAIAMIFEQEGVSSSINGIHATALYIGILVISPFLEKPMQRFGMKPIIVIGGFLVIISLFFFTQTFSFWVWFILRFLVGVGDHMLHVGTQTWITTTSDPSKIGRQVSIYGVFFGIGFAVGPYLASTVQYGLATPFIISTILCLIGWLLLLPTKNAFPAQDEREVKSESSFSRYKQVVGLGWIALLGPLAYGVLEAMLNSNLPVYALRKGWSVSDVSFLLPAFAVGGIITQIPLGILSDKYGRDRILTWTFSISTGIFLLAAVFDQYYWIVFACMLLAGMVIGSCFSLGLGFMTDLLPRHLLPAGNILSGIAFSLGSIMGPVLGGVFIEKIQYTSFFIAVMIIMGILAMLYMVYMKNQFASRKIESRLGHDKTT

Compound: CC[n+]1c(-c2ccccc2)c2cc(N)ccc2c2ccc(N)cc21 [ethidium bromide]
- whole-cell ethidium accumulation assay (fluorescence), E. coli expressing BC3310: showed less fluorescence compared to the empty vector control (pTTQ18), thereby implying that BC3310 exports

From article PMC4601019, “Bacillus cereus eﬄux protein BC3310 – a multidrug transporter of the unknown major facilitator family, UMF-2” (Frontiers in Microbiology, 2015)
